From article PMC7385619, “A triple action CDK4/6-PI3K-BET inhibitor with augmented cancer cell cytotoxicity” (Cell Discovery, 2020)

What was measured:
Assay in all cases: KINOMEscan assay (Eurofins DiscoverX)
Type in all cases: binding
kinome (kinase panel) [1] = target: T1, kinome (kinase panel) (Homo sapiens, UniProt P45985); details: MEK4 (Entrez MAP2K4); 1000 nM; read-out: Percent Control
T1 construct: purchased Eurofins DiscoverX

kinome (kinase panel) [2] = target: T2, kinome (kinase panel) (Homo sapiens, UniProt Q5S007, G2019S); details: read-out: Percent Control
T2 construct: purchased Eurofins DiscoverX

kinome (kinase panel) [3] = target: T3, kinome (kinase panel) (Homo sapiens, UniProt P11362); details: FGFR1; 1000 nM; read-out: Percent Control
T3 construct: purchased Eurofins DiscoverX

kinome (kinase panel) [4] = target: T4, kinome (kinase panel) (Homo sapiens, UniProt Q9BVS4); details: RIOK2; 1000 nM; read-out: Percent Control
T4 construct: purchased Eurofins DiscoverX

kinome (kinase panel) [5] = target: T5, kinome (kinase panel) (Homo sapiens, UniProt Q86Y07); details: VRK2; 1000 nM; read-out: Percent Control
T5 construct: purchased Eurofins DiscoverX

kinome (kinase panel) [6] = target: T6, kinome (kinase panel) (Homo sapiens, UniProt P57059); details: SIK (SIK1); 1000 nM; read-out: Percent Control
T6 construct: purchased Eurofins DiscoverX

kinome (kinase panel) [7] = target: T7, kinome (kinase panel) (Homo sapiens, UniProt Q9BZL6); details: PRKD2; 1000 nM; read-out: Percent Control
T7 construct: purchased Eurofins DiscoverX

kinome (kinase panel) [8] = target: T8, kinome (kinase panel) (Homo sapiens, UniProt O00238); details: BMPR1B; 1000 nM; read-out: Percent Control
T8 construct: purchased Eurofins DiscoverX

kinome (kinase panel) [9] = target: T9, kinome (kinase panel) (Homo sapiens, UniProt P00519, Q252H)
T9 construct: purchased Eurofins DiscoverX

kinome (kinase panel) [10] = target: T10, kinome (kinase panel) (Homo sapiens, UniProt Q9C098); details: DCAMKL3 (Entrez DCLK3); 1000 nM; read-out: Percent Control
T10 construct: purchased Eurofins DiscoverX

kinome (kinase panel) [11] = target: T11, kinome (kinase panel) (Homo sapiens, UniProt P45983); details: JNK1 (Entrez MAPK8); 1000 nM; read-out: Percent Control
T11 construct: purchased Eurofins DiscoverX

kinome (kinase panel) [12] = target: T12, kinome (kinase panel) (Homo sapiens, UniProt Q13177); details: PAK2; 1000 nM; read-out: Percent Control
T12 construct: purchased Eurofins DiscoverX

kinome (kinase panel) [13] = target: T13, kinome (kinase panel) (Homo sapiens, UniProt P21127); details: CDC2L1 (Entrez CDK11B); 1000 nM; read-out: Percent Control
T13 construct: purchased Eurofins DiscoverX

kinome (kinase panel) [14] = target: T14, kinome (kinase panel) (Homo sapiens, UniProt O00444); details: PLK4; 1000 nM; read-out: Percent Control
T14 construct: purchased Eurofins DiscoverX

kinome (kinase panel) [15] = target: T15, kinome (kinase panel) (Homo sapiens, UniProt P51955); details: NEK2; 1000 nM; read-out: Percent Control
T15 construct: purchased Eurofins DiscoverX

kinome (kinase panel) [16] = target: T16, kinome (kinase panel) (Homo sapiens, UniProt Q9HBH9); details: MKNK2; 1000 nM; read-out: Percent Control
T16 construct: purchased Eurofins DiscoverX

kinome (kinase panel) [17] = target: T17, kinome (kinase panel) (Homo sapiens, UniProt Q13464); details: ROCK1; 1000 nM; read-out: Percent Control
T17 construct: purchased Eurofins DiscoverX

kinome (kinase panel) [18] = target: T18, kinome (kinase panel) (Homo sapiens, UniProt P80192); details: MLK1 (Entrez MAP3K9); 1000 nM; read-out: Percent Control
T18 construct: purchased Eurofins DiscoverX

kinome (kinase panel) [19] = target: T19, kinome (kinase panel) (Homo sapiens, UniProt P00519, F317I)
T19 construct: purchased Eurofins DiscoverX

kinome (kinase panel) [20] = target: T20, kinome (kinase panel) (Homo sapiens, UniProt O43293); details: DAPK3; 1000 nM; read-out: Percent Control
T20 construct: purchased Eurofins DiscoverX

kinome (kinase panel) [21] = target: T21, kinome (kinase panel) (Homo sapiens, UniProt Q8IWQ3); details: BRSK2; 1000 nM; read-out: Percent Control
T21 construct: purchased Eurofins DiscoverX

kinome (kinase panel) [22] = target: T22, kinome (kinase panel) (Homo sapiens, UniProt P46734); details: MEK3 (Entrez MAP2K3); 1000 nM; read-out: Percent Control
T22 construct: purchased Eurofins DiscoverX

kinome (kinase panel) [23] = target: T23, kinome (kinase panel) (Homo sapiens, UniProt P51813); details: BMX; 1000 nM; read-out: Percent Control
T23 construct: purchased Eurofins DiscoverX

kinome (kinase panel) [24] = target: T24, kinome (kinase panel) (Homo sapiens, UniProt O14936); details: CASK; 1000 nM; read-out: Percent Control
T24 construct: purchased Eurofins DiscoverX

kinome (kinase panel) [25] = target: T25, kinome (kinase panel) (Homo sapiens, UniProt P53350); details: PLK1; 1000 nM; read-out: Percent Control
T25 construct: purchased Eurofins DiscoverX

kinome (kinase panel) [26] = target: T26, kinome (kinase panel) (Homo sapiens, UniProt Q9Y6E0); details: MST3 (Entrez STK24); 1000 nM; read-out: Percent Control
T26 construct: purchased Eurofins DiscoverX

kinome (kinase panel) [27] = target: T27, kinome (kinase panel) (Homo sapiens, UniProt P08631); details: HCK; 1000 nM; read-out: Percent Control
T27 construct: purchased Eurofins DiscoverX

kinome (kinase panel) [28] = target: T28, kinome (kinase panel) (Homo sapiens, UniProt Q8N752); details: CSNK1A1L; 1000 nM; read-out: Percent Control
T28 construct: purchased Eurofins DiscoverX

kinome (kinase panel) [29] = target: T29, kinome (kinase panel) (Homo sapiens, UniProt P54760); details: EPHB4; 1000 nM; read-out: Percent Control
T29 construct: purchased Eurofins DiscoverX

kinome (kinase panel) [30] = target: T30, kinome (kinase panel) (Homo sapiens, UniProt Q86UX6); details: YANK3 (STK32C); 1000 nM; read-out: Percent Control
T30 construct: purchased Eurofins DiscoverX

kinome (kinase panel) [31] = target: T31, kinome (kinase panel) (Homo sapiens, UniProt P10721, A829P); details: […]; 1000 nM; read-out: Percent Control
T31 construct: purchased Eurofins DiscoverX

kinome (kinase panel) [32] = target: T32, kinome (kinase panel) (Homo sapiens, UniProt Q9H4B4); details: PLK3; 1000 nM; read-out: Percent Control
T32 construct: purchased Eurofins DiscoverX

T15 sequence (P51955 whole entry): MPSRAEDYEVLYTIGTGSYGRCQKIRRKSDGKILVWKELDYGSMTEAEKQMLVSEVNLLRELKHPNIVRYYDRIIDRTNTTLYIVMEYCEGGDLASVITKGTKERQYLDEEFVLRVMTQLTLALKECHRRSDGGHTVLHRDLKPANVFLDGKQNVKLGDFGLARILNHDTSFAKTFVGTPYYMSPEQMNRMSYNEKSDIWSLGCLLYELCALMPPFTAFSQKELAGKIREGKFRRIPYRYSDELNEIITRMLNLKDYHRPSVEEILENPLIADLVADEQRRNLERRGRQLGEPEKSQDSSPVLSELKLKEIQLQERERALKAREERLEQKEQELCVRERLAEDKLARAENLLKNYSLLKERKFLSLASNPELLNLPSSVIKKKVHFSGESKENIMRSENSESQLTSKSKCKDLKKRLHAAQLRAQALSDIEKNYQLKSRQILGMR
T7 sequence (Q9BZL6 whole entry): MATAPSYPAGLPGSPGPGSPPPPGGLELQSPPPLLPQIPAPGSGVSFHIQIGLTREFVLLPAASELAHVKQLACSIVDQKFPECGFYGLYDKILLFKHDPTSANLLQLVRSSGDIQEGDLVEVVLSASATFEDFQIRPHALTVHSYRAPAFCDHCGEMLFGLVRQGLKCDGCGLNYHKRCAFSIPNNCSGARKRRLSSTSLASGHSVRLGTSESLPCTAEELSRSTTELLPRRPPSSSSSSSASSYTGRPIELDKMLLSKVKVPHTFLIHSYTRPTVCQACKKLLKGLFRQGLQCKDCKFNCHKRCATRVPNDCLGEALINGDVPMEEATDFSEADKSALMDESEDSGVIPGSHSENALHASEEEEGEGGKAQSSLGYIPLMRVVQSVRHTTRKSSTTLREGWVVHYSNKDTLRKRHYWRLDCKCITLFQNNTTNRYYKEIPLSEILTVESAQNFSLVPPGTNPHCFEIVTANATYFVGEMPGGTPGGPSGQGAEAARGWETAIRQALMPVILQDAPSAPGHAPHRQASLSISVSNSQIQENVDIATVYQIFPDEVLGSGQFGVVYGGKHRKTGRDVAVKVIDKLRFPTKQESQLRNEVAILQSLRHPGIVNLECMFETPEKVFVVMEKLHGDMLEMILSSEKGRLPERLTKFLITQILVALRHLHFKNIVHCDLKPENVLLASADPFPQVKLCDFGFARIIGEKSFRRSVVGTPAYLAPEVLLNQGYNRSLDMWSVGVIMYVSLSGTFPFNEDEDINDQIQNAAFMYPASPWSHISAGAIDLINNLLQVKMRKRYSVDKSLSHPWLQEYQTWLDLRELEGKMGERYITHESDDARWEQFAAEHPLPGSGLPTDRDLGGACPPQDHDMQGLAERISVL
T8 sequence (O00238 14-502): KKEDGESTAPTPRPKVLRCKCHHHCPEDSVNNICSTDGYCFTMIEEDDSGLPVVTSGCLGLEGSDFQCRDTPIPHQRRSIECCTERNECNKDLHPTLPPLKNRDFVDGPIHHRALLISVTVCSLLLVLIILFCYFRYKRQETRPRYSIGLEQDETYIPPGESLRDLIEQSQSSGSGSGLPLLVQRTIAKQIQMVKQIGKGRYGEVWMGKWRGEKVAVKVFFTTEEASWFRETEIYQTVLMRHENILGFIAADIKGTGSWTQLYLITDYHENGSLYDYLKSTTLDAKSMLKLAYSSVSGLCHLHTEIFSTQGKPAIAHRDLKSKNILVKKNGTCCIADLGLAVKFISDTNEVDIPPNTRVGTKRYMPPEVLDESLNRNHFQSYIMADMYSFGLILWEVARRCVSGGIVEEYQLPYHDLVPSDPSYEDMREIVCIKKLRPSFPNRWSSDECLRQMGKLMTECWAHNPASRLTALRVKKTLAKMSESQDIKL
T24 sequence (O14936 whole entry): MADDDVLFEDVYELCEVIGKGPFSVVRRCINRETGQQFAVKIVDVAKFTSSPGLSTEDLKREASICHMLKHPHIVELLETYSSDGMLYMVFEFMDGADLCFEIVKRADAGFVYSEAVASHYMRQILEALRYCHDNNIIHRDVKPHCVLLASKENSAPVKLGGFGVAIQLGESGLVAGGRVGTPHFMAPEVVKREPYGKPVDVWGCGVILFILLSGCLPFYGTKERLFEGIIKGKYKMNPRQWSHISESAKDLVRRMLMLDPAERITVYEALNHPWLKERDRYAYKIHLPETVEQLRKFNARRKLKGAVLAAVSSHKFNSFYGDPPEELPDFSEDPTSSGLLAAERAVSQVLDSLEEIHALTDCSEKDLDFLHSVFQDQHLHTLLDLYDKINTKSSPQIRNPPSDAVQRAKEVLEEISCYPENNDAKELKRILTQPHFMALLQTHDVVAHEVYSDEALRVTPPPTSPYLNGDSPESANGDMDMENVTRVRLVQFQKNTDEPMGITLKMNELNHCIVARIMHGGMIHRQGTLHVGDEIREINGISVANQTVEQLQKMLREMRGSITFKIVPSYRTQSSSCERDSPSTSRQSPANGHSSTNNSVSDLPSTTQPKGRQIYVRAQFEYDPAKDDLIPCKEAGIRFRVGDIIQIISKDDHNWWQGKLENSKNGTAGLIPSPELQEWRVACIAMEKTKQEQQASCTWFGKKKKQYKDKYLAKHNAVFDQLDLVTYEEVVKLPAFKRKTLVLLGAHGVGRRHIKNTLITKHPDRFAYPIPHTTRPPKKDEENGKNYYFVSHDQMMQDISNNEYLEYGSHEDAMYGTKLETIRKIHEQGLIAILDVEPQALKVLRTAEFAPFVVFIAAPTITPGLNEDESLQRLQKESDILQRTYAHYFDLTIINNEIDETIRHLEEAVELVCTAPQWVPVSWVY
T21 sequence (Q8IWQ3 whole entry): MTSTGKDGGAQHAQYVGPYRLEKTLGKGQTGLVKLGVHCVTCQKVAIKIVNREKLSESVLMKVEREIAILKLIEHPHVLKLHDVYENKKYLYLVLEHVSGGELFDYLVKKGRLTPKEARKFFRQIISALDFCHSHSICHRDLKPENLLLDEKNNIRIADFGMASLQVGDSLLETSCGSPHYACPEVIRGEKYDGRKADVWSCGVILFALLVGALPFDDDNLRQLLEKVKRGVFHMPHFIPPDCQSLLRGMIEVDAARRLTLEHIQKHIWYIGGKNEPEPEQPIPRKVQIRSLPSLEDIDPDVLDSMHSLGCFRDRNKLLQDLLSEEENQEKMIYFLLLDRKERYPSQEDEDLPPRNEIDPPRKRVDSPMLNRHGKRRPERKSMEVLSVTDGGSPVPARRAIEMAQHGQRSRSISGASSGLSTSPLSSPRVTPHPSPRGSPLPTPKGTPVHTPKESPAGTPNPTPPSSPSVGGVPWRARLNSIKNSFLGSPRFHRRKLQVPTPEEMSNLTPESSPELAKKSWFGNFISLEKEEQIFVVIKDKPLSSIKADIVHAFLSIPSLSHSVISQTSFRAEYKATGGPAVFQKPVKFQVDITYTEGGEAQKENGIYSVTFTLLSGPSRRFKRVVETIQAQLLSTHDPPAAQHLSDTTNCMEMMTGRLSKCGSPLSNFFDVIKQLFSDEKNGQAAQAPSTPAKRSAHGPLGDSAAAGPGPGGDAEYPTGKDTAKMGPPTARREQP
T4 sequence (Q9BVS4 whole entry): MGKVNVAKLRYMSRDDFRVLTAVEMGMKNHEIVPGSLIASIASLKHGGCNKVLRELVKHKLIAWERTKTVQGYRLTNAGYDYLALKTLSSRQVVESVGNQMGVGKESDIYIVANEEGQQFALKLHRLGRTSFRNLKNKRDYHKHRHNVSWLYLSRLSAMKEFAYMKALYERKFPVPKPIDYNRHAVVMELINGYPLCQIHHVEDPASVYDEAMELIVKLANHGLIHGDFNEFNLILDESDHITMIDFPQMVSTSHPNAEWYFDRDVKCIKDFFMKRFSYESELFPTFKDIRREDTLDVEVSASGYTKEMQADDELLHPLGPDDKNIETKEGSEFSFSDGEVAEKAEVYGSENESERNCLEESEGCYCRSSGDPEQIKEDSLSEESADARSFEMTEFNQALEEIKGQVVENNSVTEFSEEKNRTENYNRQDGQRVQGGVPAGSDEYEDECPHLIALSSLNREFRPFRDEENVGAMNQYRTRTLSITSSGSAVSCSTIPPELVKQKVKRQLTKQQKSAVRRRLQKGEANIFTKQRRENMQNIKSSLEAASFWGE
T5 sequence (Q86Y07 whole entry): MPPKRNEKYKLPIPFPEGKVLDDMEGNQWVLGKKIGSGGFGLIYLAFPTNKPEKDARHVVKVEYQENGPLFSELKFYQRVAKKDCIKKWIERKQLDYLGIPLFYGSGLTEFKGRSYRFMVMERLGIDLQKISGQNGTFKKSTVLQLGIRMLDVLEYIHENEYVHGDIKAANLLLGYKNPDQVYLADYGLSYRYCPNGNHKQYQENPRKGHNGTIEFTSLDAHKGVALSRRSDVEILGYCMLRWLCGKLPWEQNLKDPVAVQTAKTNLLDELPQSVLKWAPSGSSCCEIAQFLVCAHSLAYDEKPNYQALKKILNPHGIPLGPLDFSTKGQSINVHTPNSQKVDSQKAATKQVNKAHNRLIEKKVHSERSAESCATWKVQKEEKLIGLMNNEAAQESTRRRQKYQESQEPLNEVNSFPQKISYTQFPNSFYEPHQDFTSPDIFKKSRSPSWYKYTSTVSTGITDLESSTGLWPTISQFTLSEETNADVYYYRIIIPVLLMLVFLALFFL
T30 sequence (Q86UX6 whole entry): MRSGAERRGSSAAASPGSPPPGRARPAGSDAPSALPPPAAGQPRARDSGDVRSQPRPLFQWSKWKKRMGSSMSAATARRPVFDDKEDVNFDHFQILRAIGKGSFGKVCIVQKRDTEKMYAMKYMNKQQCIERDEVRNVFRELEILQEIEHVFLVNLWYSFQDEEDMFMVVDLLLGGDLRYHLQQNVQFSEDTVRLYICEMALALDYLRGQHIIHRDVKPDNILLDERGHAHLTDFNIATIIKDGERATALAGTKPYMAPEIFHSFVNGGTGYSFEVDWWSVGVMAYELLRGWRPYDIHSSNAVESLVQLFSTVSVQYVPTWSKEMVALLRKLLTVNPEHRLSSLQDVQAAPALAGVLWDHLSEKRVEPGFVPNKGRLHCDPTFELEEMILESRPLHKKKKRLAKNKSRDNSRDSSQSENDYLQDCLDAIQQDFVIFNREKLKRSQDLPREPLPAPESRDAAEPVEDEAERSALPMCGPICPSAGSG

CN(C)C(=O)c1cc2cnc(Nc3ccc(-c4csc5c(=O)cc(N6CCOCC6)oc45)cc3)nc2n1C1CCCC1 [SRX3177]
remaining binding at 1 µM (kinome (kinase panel) [1]): 79% | remaining binding at 1 µM (kinome (kinase panel) [2]): 44% | remaining binding at 1 µM (kinome (kinase panel) [3]): 100% | remaining binding at 1 µM (kinome (kinase panel) [4]): 6.6% | remaining binding at 1 µM (kinome (kinase panel) [5]): 21% | remaining binding at 1 µM (kinome (kinase panel) [6]): 94% | remaining binding at 1 µM (kinome (kinase panel) [7]): 100% | remaining binding at 1 µM (kinome (kinase panel) [8]): 19% | Percent Control (kinome (kinase panel) [9]): 58 | remaining binding at 1 µM (kinome (kinase panel) [9]; read-out: Percent Control): 72% | remaining binding at 1 µM (kinome (kinase panel) [10]): 100% | remaining binding at 1 µM (kinome (kinase panel) [11]): 62% | remaining binding at 1 µM (kinome (kinase panel) [12]): 78% | remaining binding at 1 µM (kinome (kinase panel) [13]): 99% | remaining binding at 1 µM (kinome (kinase panel) [14]): 60% | remaining binding at 1 µM (kinome (kinase panel) [15]): 90% | remaining binding at 1 µM (kinome (kinase panel) [16]): 45% | remaining binding at 1 µM (kinome (kinase panel) [17]): 87% | remaining binding at 1 µM (kinome (kinase panel) [18]): 62% | Percent Control (kinome (kinase panel) [19]): 96 | remaining binding at 1 µM (kinome (kinase panel) [19]; read-out: Percent Control): 81% | remaining binding at 1 µM (kinome (kinase panel) [20]): 100% | remaining binding at 1 µM (kinome (kinase panel) [21]): 100% | remaining binding at 1 µM (kinome (kinase panel) [22]): 76% | remaining binding at 1 µM (kinome (kinase panel) [23]): 77% | remaining binding at 1 µM (kinome (kinase panel) [24]): 35% | remaining binding at 1 µM (kinome (kinase panel) [25]): 75% | remaining binding at 1 µM (kinome (kinase panel) [26]): 93% | remaining binding at 1 µM (kinome (kinase panel) [27]): 100% | remaining binding at 1 µM (kinome (kinase panel) [28]): 100% | remaining binding at 1 µM (kinome (kinase panel) [29]): 98% | remaining binding at 1 µM (kinome (kinase panel) [30]): 91% | remaining binding at 1 µM (kinome (kinase panel) [31]): 1.6% | remaining binding at 1 µM (kinome (kinase panel) [32]): 79%
